Measured values as given in PMC12196347, “Evaluating Triazole-Substituted Pyrrolopyrimidines as CSF1R Inhibitors” (Molecules, 2025).
Where two headings read alike, the source gives them in different places.

How the values were obtained:
[1] = tested on: IL-3 dependent Ba/F3 cell line (CSF1R independent); assay: Control assay for cellular toxicity, Ba/F3 cells dependent on IL-3; assay type: cell-based; conditions: Mus musculus, BaF3; Ba/F3 cells dependent on IL-3, control for cellular toxicity
[2] = tested on: KIT-positive cell line GIST-T1; assay: GIST-T1 CellTiter-Glo cell viability assay; assay type: cell-based; conditions: Homo sapiens, GISTT1; cellular proliferation, GIST-T1, 72 h
[3] = target: T1, ABL1 (Homo sapiens, UniProt P00519); assay: Kinase panel profiling: ABL1; assay type: biochemical; conditions: ATP equal to KM
T1 construct: purchased Thermo Fisher Scientific (Invitrogen) SelectScreen (Z'-LYTE)

[4] = target: T2, AURKB (Aurora B) (Homo sapiens, UniProt Q96GD4); assay: Kinase panel profiling: AURKB; assay type: biochemical; conditions: ATP equal to KM
T2 construct: purchased Thermo Fisher Scientific (Invitrogen) SelectScreen (Z'-LYTE)
T2 sequence (Q96GD4 whole entry): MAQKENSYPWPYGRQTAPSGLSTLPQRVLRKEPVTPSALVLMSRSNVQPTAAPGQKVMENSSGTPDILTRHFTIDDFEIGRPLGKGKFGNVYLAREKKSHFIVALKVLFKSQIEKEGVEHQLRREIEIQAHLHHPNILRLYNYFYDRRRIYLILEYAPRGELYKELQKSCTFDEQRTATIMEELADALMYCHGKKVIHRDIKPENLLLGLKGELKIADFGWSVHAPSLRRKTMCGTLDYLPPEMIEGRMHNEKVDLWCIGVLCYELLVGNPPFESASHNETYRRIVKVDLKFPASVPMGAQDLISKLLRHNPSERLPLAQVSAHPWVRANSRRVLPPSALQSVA

[5] = target: T3, CAMK1D (CaMKI delta) (Homo sapiens, UniProt Q8IU85); assay: Kinase panel profiling: CAMK1D; assay type: biochemical; conditions: ATP equal to KM
T3 construct: purchased Thermo Fisher Scientific (Invitrogen) SelectScreen (Z'-LYTE)
T3 sequence (Q8IU85 whole entry): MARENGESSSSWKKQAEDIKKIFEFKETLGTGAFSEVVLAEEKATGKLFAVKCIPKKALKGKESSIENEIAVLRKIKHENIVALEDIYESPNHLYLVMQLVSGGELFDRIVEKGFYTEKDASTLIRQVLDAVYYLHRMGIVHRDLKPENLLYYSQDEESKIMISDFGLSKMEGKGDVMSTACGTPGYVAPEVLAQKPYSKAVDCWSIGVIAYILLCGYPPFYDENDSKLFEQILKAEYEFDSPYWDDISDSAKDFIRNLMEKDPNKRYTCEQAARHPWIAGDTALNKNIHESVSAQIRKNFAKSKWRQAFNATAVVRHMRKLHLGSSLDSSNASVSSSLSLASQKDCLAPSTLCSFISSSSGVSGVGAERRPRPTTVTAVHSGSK

[6] = target: T4, CDK1/cyclin B (Homo sapiens, UniProt P06493); assay: Kinase panel profiling: CDK1/cyclin B; assay type: biochemical; conditions: ATP equal to KM
T4 construct: purchased Thermo Fisher Scientific (Invitrogen) SelectScreen (Z'-LYTE)
T4 sequence (P06493 whole entry): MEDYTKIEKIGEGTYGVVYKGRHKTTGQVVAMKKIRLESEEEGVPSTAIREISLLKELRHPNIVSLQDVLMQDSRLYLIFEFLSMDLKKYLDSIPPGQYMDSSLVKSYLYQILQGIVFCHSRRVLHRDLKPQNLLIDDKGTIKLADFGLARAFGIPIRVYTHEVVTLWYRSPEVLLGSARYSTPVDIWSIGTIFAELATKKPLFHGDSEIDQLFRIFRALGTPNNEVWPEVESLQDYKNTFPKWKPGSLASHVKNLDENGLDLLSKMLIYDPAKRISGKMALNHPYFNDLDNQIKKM
T4 sequence (P14635 whole entry partner): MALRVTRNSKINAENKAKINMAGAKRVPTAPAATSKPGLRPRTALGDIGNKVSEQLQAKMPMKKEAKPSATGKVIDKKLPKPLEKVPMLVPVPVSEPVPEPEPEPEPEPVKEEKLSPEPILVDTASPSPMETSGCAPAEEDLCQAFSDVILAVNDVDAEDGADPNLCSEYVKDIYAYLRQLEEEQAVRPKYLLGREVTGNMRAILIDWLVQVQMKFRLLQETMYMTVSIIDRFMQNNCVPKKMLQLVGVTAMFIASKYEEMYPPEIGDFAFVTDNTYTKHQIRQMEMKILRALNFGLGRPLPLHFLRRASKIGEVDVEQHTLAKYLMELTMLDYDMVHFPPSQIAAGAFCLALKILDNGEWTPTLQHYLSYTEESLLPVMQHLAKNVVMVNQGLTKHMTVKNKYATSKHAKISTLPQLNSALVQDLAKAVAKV

[7] = target: T5, CHEK1 (CHK1) (Homo sapiens, UniProt O14757); assay: Kinase panel profiling: CHEK1; assay type: biochemical; conditions: ATP equal to KM
T5 construct: purchased Thermo Fisher Scientific (Invitrogen) SelectScreen (Z'-LYTE)
T5 sequence (O14757 1-476): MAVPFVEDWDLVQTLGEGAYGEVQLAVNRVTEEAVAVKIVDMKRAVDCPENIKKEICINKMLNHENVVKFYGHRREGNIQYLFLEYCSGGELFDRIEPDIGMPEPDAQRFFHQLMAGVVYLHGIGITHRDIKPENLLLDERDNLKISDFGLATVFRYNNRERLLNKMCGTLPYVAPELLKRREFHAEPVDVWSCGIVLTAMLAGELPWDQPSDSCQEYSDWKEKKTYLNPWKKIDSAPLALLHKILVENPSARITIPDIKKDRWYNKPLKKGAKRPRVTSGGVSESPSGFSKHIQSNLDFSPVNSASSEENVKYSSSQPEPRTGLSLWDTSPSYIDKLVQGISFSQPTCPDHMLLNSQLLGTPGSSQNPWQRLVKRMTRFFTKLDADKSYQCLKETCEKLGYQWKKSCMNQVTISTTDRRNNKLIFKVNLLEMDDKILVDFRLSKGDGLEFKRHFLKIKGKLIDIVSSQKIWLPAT

[8] = target: T6, DYRK1A (Homo sapiens, UniProt Q13627); assay: Kinase panel profiling: DYRK1A; assay type: biochemical; conditions: ATP equal to KM
T6 construct: purchased Thermo Fisher Scientific (Invitrogen) SelectScreen (Z'-LYTE)

[9] = target: T7, FLT3 (Homo sapiens, UniProt P36888); assay: Kinase panel profiling: FLT3; assay type: biochemical; conditions: ATP equal to KM
T7 construct: purchased Thermo Fisher Scientific (Invitrogen) SelectScreen (Z'-LYTE)
T7 sequence (P36888 27-993): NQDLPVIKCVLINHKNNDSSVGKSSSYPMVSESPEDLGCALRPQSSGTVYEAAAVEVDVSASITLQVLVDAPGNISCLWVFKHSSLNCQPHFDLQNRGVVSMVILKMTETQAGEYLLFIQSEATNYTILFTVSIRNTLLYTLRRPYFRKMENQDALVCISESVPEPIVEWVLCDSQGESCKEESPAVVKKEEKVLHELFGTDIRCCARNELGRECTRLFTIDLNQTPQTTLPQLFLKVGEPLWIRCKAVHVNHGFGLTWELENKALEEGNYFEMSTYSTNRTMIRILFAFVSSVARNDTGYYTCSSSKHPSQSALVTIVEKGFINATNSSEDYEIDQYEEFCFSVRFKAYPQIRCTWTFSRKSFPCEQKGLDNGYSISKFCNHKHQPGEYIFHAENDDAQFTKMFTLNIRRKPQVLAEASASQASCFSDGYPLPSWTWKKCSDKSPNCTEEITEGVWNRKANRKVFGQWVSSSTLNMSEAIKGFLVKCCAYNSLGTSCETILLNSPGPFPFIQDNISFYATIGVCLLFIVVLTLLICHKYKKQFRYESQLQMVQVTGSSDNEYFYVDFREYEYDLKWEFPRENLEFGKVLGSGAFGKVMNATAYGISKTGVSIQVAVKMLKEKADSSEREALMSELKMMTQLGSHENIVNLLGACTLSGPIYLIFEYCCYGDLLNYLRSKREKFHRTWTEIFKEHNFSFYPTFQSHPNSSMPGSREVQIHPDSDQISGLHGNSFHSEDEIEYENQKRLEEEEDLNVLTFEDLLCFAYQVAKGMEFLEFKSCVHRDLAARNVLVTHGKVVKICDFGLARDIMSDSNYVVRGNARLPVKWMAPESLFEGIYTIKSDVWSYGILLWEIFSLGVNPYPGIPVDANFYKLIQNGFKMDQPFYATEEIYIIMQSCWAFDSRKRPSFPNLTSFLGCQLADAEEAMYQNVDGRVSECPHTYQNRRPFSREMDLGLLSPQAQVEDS

[10] = target: T8, FLT4 (VEGFR3) (Homo sapiens, UniProt P35916); assay: Kinase panel profiling: FLT4; assay type: biochemical; conditions: ATP equal to KM
T8 construct: purchased Thermo Fisher Scientific (Invitrogen) SelectScreen (Z'-LYTE)

[11] = target: T9, KIT (Homo sapiens, UniProt P10721); assay: Kinase panel profiling: KIT; assay type: biochemical; conditions: ATP equal to KM
T9 construct: purchased Thermo Fisher Scientific (Invitrogen) SelectScreen (Z'-LYTE)
T9 sequence (P10721 26-976): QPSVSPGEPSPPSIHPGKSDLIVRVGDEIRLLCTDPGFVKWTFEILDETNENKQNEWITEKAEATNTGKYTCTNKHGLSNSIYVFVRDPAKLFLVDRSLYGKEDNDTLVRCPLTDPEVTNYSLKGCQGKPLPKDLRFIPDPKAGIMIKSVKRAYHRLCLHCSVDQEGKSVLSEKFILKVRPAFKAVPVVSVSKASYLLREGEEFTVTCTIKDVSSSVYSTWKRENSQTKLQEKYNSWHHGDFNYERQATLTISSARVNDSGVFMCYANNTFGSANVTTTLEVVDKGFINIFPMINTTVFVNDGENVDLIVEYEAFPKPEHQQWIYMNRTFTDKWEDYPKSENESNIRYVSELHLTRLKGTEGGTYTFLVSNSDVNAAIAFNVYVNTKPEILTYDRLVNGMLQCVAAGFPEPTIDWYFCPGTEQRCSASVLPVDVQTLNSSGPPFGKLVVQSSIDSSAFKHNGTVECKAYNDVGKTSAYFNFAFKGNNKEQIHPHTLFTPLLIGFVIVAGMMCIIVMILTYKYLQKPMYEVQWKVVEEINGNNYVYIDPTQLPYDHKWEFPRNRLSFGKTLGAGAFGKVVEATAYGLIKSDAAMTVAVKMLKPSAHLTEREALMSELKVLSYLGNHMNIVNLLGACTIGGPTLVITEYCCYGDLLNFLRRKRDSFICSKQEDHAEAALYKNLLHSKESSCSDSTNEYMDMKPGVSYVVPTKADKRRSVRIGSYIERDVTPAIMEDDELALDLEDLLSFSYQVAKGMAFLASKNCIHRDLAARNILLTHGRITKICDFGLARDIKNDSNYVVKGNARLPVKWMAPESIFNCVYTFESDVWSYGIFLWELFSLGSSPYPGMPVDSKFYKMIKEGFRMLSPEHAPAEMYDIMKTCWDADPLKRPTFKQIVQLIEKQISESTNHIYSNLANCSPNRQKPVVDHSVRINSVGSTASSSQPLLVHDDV

[12] = target: T10, LTK (TYK1) (Homo sapiens, UniProt P29376); assay: Kinase panel profiling: LTK; assay type: biochemical; conditions: ATP equal to KM
T10 construct: purchased Thermo Fisher Scientific (Invitrogen) SelectScreen (Z'-LYTE)

[13] = target: T11, MKNK1 (MNK1) (Homo sapiens, UniProt Q9BUB5); assay: Kinase panel profiling: MKNK1; assay type: biochemical; conditions: ATP equal to KM
T11 construct: purchased Thermo Fisher Scientific (Invitrogen) SelectScreen (Z'-LYTE)
T11 sequence (Q9BUB5 whole entry): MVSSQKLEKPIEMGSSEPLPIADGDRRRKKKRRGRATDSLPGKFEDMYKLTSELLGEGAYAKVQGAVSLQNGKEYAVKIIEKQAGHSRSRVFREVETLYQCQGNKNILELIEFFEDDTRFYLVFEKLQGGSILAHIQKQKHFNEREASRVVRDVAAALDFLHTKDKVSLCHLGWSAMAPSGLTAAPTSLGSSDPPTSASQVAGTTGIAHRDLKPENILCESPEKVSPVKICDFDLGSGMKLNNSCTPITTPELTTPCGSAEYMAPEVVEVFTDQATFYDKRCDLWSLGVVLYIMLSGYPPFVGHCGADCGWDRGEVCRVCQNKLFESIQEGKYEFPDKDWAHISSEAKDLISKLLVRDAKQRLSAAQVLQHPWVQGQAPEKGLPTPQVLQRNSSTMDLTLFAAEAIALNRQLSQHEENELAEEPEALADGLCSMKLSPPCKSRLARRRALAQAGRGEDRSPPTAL

[14] = target: T12, PAK1 (Homo sapiens, UniProt Q13153); assay: Kinase panel profiling: PAK1; assay type: biochemical; conditions: ATP equal to KM
T12 construct: purchased Thermo Fisher Scientific (Invitrogen) SelectScreen (Z'-LYTE)
T12 sequence (Q13153 whole entry): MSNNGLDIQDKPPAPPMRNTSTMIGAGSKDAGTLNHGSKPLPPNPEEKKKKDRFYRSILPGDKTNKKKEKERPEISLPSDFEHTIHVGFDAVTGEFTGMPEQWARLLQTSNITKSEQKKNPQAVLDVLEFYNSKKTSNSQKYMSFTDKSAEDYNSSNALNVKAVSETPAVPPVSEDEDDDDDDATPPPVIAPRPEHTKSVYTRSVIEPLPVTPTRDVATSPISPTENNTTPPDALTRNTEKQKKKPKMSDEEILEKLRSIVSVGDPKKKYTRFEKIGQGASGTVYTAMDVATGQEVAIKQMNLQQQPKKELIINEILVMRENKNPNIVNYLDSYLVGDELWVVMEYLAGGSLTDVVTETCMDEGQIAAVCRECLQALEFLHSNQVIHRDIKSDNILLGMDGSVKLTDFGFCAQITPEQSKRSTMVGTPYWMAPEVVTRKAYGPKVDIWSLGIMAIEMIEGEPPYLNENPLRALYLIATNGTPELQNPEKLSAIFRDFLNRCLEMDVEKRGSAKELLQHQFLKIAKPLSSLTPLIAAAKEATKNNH

[15] = target: ROCK1 (Homo sapiens, UniProt Q13464); assay: Kinase panel profiling: ROCK1; assay type: biochemical; conditions: ATP equal to KM
Chain of ROCK1 (Q13464 whole entry): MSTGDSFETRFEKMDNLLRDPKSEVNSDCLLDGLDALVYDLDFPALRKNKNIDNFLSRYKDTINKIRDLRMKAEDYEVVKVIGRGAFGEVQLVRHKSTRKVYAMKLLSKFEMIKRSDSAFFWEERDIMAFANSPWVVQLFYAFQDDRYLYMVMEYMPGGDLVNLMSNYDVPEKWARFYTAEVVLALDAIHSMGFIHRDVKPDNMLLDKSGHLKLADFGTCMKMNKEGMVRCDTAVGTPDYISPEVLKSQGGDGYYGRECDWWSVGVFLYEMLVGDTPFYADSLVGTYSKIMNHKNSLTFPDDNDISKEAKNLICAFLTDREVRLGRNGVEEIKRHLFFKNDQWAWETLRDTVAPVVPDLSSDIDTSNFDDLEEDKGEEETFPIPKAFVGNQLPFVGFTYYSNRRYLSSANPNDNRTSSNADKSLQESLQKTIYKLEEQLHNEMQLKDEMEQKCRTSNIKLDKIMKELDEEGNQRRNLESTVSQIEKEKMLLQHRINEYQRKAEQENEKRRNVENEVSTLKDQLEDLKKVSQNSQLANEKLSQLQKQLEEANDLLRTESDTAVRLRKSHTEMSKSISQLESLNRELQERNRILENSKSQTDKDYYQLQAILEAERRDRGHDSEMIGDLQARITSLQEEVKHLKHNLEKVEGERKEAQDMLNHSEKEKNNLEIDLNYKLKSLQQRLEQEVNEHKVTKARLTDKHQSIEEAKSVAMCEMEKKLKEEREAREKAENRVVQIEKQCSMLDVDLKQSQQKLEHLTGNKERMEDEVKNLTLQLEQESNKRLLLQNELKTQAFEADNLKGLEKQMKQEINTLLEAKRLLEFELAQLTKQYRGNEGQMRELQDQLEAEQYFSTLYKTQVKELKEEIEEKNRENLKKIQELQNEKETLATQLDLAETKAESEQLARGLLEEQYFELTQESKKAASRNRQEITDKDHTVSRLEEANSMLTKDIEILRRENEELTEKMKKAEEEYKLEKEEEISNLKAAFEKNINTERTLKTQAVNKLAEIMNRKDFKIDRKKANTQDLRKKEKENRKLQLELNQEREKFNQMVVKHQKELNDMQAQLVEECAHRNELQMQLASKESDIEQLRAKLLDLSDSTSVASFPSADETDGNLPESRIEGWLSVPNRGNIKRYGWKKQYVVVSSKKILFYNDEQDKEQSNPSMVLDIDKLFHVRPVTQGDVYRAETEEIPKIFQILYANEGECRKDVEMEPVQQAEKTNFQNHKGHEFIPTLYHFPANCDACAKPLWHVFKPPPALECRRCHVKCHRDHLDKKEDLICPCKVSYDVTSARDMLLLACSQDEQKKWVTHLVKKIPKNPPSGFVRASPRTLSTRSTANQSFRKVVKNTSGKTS

[16] = 1000 nM test concentration, read-out: Average inhibition (%)
[17] = 1000 nM, first data point, read-out: Inhibition (%)
[18] = 1000 nM, second data point, read-out: Inhibition (%)

inhibition at 1 µM [3, 16]: 99%
inhibition at 1 µM [3, 17]: 99%
inhibition at 1 µM [4, 16]: 47%
inhibition at 1 µM [4, 17]: 47%
inhibition at 1 µM [4, 18]: 46%
inhibition at 1 µM [5, 16]: 5%
inhibition at 1 µM [5, 17]: 2%
inhibition at 1 µM [5, 18]: 9%
inhibition at 1 µM [6, 16]: 27%
inhibition at 1 µM [6, 17]: 24%
inhibition at 1 µM [6, 18]: 29%
inhibition at 1 µM [7, 16]: 5%
inhibition at 1 µM [7, 17]: 0%
inhibition at 1 µM [7, 18]: 9%
inhibition at 1 µM [8, 16]: 5%
inhibition at 1 µM [8, 17]: 5%
inhibition at 1 µM [8, 18]: 4%
inhibition at 1 µM [9, 16]: 44%
inhibition at 1 µM [9, 17]: 42%
inhibition at 1 µM [9, 18]: 45%
inhibition at 1 µM [10, 16]: 16%
inhibition at 1 µM [10, 17]: 15%
inhibition at 1 µM [10, 18]: 16%
inhibition at 1 µM [11, 16]: 57%
inhibition at 1 µM [11, 17]: 56%
inhibition at 1 µM [11, 18]: 58%
inhibition at 1 µM [12, 16]: 25%
inhibition at 1 µM [12, 17]: 25%
inhibition at 1 µM [13, 16]: 2%
inhibition at 1 µM [13, 17]: 3%
inhibition at 1 µM [13, 18]: 1%
inhibition at 1 µM [14, 16]: 2%
inhibition at 1 µM [14, 17]: 4%
inhibition at 1 µM [14, 18]: 0%
inhibition at 1 µM [15, 16]: 0%
inhibition at 1 µM [15, 17]: 2%
inhibition at 1 µM [15, 18]: -2%
Compound: Cc1cccc(CN(C)c2ncnc3[nH]c(-c4cn(Cc5cccnc5)nn4)cc23)c1 [Compound 27a, N-Methyl-N-(3-methylbenzyl)-6-(1-(pyridin-3-ylmethyl)-1H-1,2,3-triazol-4-yl)-7H-pyrrolo[2,3-d]pyrimidin-4-amine]
IC50 [1]: > 10 µM
IC50 [2]: > 30 µM
